Assay results from ChEMBL document CHEMBL1201862, “PubChem BioAssay data set” (2004).
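In this assay, cells in 96-well plates receive the compound at five concentrations for 48 hours. Endpoints are linearly interpolated between the surrounding concentrations. GI50 = concentration required for 50% inhibition of growth.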 The source made the active and inactive calls. Rule as the data show it: active = GI50 up to about 1.1 µM and inactive = higher.

Tests used:
Experiment in all cases: NCI-60 cell line screen, 48 h
[1] = test system: PC-3
[2] = test system: NCI-H226
[3] = test system: RPMI-8226
[4] = test system: HOP-92
[5] = test system: OVCAR-8
[6] = test system: A498
[7] = test system: NCI-H522
[8] = test system: SNB-19
[9] = test system: CAKI-1
[10] = test system: OVCAR-3
[11] = test system: SN12C
[12] = test system: DU-145
[13] = test system: SNB-75
[14] = test system: A549
[15] = test system: T47D
[16] = test system: K562
[17] = test system: Hs-578T
[18] = test system: KM-20L2
[19] = test system: EKVX
[20] = test system: HCT-116

| Structure (SMILES) | GI50 [1] | GI50 [2] | GI50 [3] | GI50 [4] | GI50 [5] | GI50 [6] | GI50 [7] | GI50 [8] | GI50 [9] | GI50 [10] | GI50 [11] | GI50 [12] | GI50 [13] | GI50 [14] | GI50 [15] | GI50 [16] | GI50 [17] | GI50 [18] | GI50 [19] | GI50 [20] |
| --- | --- | --- | --- | --- | --- | --- | --- | --- | --- | --- | --- | --- | --- | --- | --- | --- | --- | --- | --- | --- |
| c1ccc(CN2CCc3[nH]c4ccccc4c3C2)cc1 | 25.4 µM (inactive) | 33.4 µM (inactive) | 23.8 µM (inactive) | 18 µM (inactive) | 46.1 µM (inactive) | 26.6 µM (inactive) | 18.1 µM (inactive) | 69.8 µM (inactive) | 36.5 µM (inactive) | 33 µM (inactive) | 34.3 µM (inactive) | 31 µM (inactive) | 51.6 µM (inactive) | 67.8 µM (inactive) | 14.9 µM (inactive) | 19.1 µM (inactive) | 32.5 µM (inactive) | 15 µM (inactive) | 46.5 µM (inactive) | 19.9 µM (inactive) |
| CCN(CC)CC(C)(C)C(=O)/C=C/c1ccc(/C=C/C(=O)C(C)(C)CN(CC)CC)cc1 | 0.414 µM (active) | 2.28 µM (inactive) | 0.157 µM (active) | 0.397 µM (active) | 0.259 µM (active) | 1.7 µM (inactive) | 0.104 µM (active) | 1.53 µM (inactive) | 0.733 µM (active) | 0.533 µM (active) | 0.471 µM (active) | 2.01 µM (inactive) | 1.61 µM (inactive) | 1.97 µM (inactive) | 0.587 µM (active) | 0.0935 µM (active) | 0.462 µM (active) | 0.617 µM (active) | 1.63 µM (inactive) | 0.334 µM (active) |
| CC(=O)O[C@@]12CO[C@@H]1C[C@H](O)[C@@]1(C)C(=O)[C@H](O)C3=C(C)[C@@H](OC(=O)[C@H](O)[C@@H](NC(=O)OC(C)(C)C)c4ccccc4)C[C@@](O)([C@@H](OC(=O)c4ccccc4)[C@H]21)C3(C)C [DOCETAXEL] | 0.00578 µM (active) | – | < 0.01 µM (active) | 9.04 µM (inactive) | < 0.01 µM (active) | < 0.0851 µM (active) | < 0.01 µM (active) | 43.2 µM (inactive) | 0.0417 µM (active) | < 0.01 µM (active) | < 0.01 µM (active) | – | < 0.01 µM (active) | < 0.01 µM (active) | – | < 0.01 µM (active) | 0.00104 µM (active) | < 0.01 µM (active) | 3.72 µM (inactive) | < 0.01 µM (active) |
| CC1=C(C(=O)Nc2ccccc2)C(c2ccc(N(C)C)cc2)C(C(=O)Nc2ccccc2)=C(C)N1 | 4.08 µM (inactive) | > 89.5 µM (inactive) | 3.13 µM (inactive) | 65.9 µM (inactive) | 11.9 µM (inactive) | > 100 µM (inactive) | 6.64 µM (inactive) | 64.3 µM (inactive) | 25.3 µM (inactive) | 8.69 µM (inactive) | 46.3 µM (inactive) | 3.17 µM (inactive) | 35.6 µM (inactive) | 3.31 µM (inactive) | 3.33 µM (inactive) | 1.09 µM (active) | > 100 µM (inactive) | 0.439 µM (active) | 62.8 µM (inactive) | 4.72 µM (inactive) |
| CCCCCCCCCCSS(=O)(=O)c1ccc(C)cc1 | – | 19 µM (inactive) | 3.41 µM (inactive) | 12.9 µM (inactive) | 14.1 µM (inactive) | 18.5 µM (inactive) | 6.4 µM (inactive) | 10.5 µM (inactive) | 15.9 µM (inactive) | 18.6 µM (inactive) | 10.5 µM (inactive) | – | 2.3 µM (inactive) | 14.9 µM (inactive) | – | 12.1 µM (inactive) | – | 16.6 µM (inactive) | 12.4 µM (inactive) | 12.5 µM (inactive) |
| NNC(=O)C(=O)N/N=C1/CCCC1C(=O)CCC(=O)Nc1ccc(Cl)cc1 (centres undefined) | – | > 100 µM (inactive) | > 100 µM (inactive) | > 100 µM (inactive) | > 100 µM (inactive) | > 100 µM (inactive) | > 100 µM (inactive) | > 100 µM (inactive) | 20.5 µM (inactive) | > 100 µM (inactive) | > 100 µM (inactive) | – | > 100 µM (inactive) | > 100 µM (inactive) | – | 12.1 µM (inactive) | – | 6.04 µM (inactive) | > 100 µM (inactive) | > 100 µM (inactive) |
| CCCCCCCCCC[C@@H](O)[C@@H]1CC[C@@H]([C@@H]2CC[C@@H]([C@@H](O)CCCCCCCCCC[C@H](O)CC3=CC(C)OC3=O)O2)O1 (some centres undefined) | 2.34 µM (inactive) | 1.29 µM (inactive) | 1.26 µM (inactive) | 2.26 µM (inactive) | 2.65 µM (inactive) | 1.7 µM (inactive) | 1.72 µM (inactive) | 4.6 µM (inactive) | 12.1 µM (inactive) | 3.94 µM (inactive) | 5.62 µM (inactive) | 8.95 µM (inactive) | 3.33 µM (inactive) | 1.73 µM (inactive) | 2.63 µM (inactive) | 0.0318 µM (active) | 4.04 µM (inactive) | 13.6 µM (inactive) | 1.61 µM (inactive) | 1.91 µM (inactive) |
| COc1ccc(/C=C\c2cc(OC)c(OC)c(OC)c2)cc1OC | 0.112 µM (active) | 0.056 µM (active) | 0.162 µM (active) | 9.66 µM (inactive) | 0.153 µM (active) | 0.236 µM (active) | 0.0349 µM (active) | 0.153 µM (active) | 0.156 µM (active) | 0.0916 µM (active) | 0.216 µM (active) | 0.286 µM (active) | 0.098 µM (active) | 0.239 µM (active) | 22.2 µM (inactive) | 0.12 µM (active) | 0.0604 µM (active) | 0.0771 µM (active) | 0.188 µM (active) | 0.135 µM (active) |
